Groups on a side chain read outwards from the residue. Primed or numbered codes have the meaning given here. No end group written: not given here. *: point of attachment. DOPE = CCCCCCCC/C=C\CCCCCCCC(=O)OC[C@H](COP(=O)(O)OCCN*)OC(=O)CCCCCCC/C=C\CCCCCCCC; S1 PEG = not defined here; PEG6′ = not defined here; Mal = not defined here; Mal″ = maleimide; βAla = NCCC(=O)O

The values that follow come from US20110171666A1, “PEPTIDE-LIPID CONSTRUCTS AND THEIR USE IN DIAGNOSTIC AND THERAPEUTIC APPLICATIONS” (priority 2007, published 2011).

Assay [1] relates to Miltenberger Antibody Positive Panel (polyclonal sera and monoclonal antibodies). Kind of assay: Reactivity of construct-modified RBCs against the Miltenberger Antibody Positive Panel. The arrangement: key: 0 or ‘−’=no agglutination; 0 or ‘−’=no agglutination; 1+ or 3=very weak agglutination; 1+ or 3=very weak agglutination; 2+ or 5=weak agglutination; 2+ or 5=weak agglutination; 3+ or 8=moderate strong agglutination; 3+ or 8=moderate strong agglutination; 4+ or 10/12=strong agglutination; 4+ or 10/12=strong agglutination; 4+ or 10/12=strong agglutination. Format: cell-based, human. The method, then: Red blood cells are modified by mixing 1 part by volume of washed packed red blood cells with 1 part by volume of peptide-lipid construct dispersed at a concentration of 10 to 1000 μg/ml in cell media (Celpresol™).
(§1) The suspensions are either: • 1. incubated for 2 hours at 37° C. before being washed and suspended in a cell medium for serological analysis at a concentration of 0.8 to 3% (Method 1); or • 2. incubated for 3 to 4 hours at room temperature (circa 25° C.) followed by 18 hours at 4° C. before being washed and suspended in a cell medium for serological analysis at a concentration of 0.8 to 3% (Method 2).
(§2) Serological reactions are graded or scored by either of two established systems (0 or ‘−’=no agglutination, 1+ or 3=very weak agglutination, 2+ or 5=weak agglutination, 3+ or 8=moderate strong agglutination, 4+ or 10/12=strong agglutination)
(§3) Serological platforms used are Tube (addition of reagents and reactants into plastic or glass serology tubes and after appropriate incubations, washing and centrifugation observing reactions macroscopically by eye and a 10× magnification eyepiece and scoring) and BioVue™ (addition of reactants into cassettes containing beads (including some reactants) and after appropriate incubations and centrifugation observing the reaction patterns traped within the Gel matrix). BioVue is the serological column agglutination platform of Ortho-Clinical Diagnostics.

The test system of assay [2] is sera reactive with modified RBCs. Kind of assay: Neutralisation of reactive sera with peptide and retest against modified RBCs (BioVue cards). The assay is classed as cell-based, human. The arrangement: key: 0 or ‘−’=no agglutination; 0 or ‘−’=no agglutination; 1+ or 3=very weak agglutination; 1+ or 3=very weak agglutination; 2+ or 5=weak agglutination; 2+ or 5=weak agglutination; 3+ or 8=moderate strong agglutination; 3+ or 8=moderate strong agglutination; 4+ or 10/12=strong agglutination; 4+ or 10/12=strong agglutination; 4+ or 10/12=strong agglutination. Conditions: for reactivity score, serum + peptide: RBCs modified at 500 μg/ml (Method 1). The method, then:
as §1, §2, §3
Where false positives were observed these could be substantially eliminated by pre-treatment of the sample of serum with the peptide of the peptide-lipid constructs (Table 10 and 11).

Setting [3] is: MUT constructs, μg/ml used: M1 500, M2 500, M3 1000, M13 250, M21 200.
Setting [4] is: MUR constructs, RBCs modified at 100 ug/ml.

With “DOPE-PEG6-βAla-Mal-13MUTK (SSQTNDKHKRDTYC([Mal-βAla-PEG6′-DOPE]); reading uncertain; also: printed as DOPE-PEG6-βAla-Mal-13MUTK) [M13]”, in assay [1] (setting [3]), the “reactivity score of modified RBCs vs 2 T217” value (from here on “reactivity score … vs 2 T217”) is on record as 8, the “reactivity score of modified RBCs vs 3 T165” value (shortened to “reactivity score … vs 3 T165”) was 0, the “reactivity score of modified RBCs vs 4 T7202” value (“reactivity score … vs 4 T7202” below) is 8 and the “reactivity score of modified RBCs vs 6 T6025” value (shortened to “reactivity score … vs 6 T6025”) worked out at 8. In addition, in assay [1] (setting [3]), the “reactivity score of modified RBCs vs 7 T8445” value (“reactivity score … vs 7 T8445” for short) turned out to be 0, the “reactivity score of modified RBCs vs 8 T5896” value (“reactivity score … vs 8 T5896” below) turned out to be 3, the “reactivity score of modified RBCs vs 9 MIII monoclonal antibody” value is on record as 0 and the “reactivity score of modified RBCs vs 10 Mia monoclonal antibody” value amounted to 0. In assay [1] (setting [3]), the “reactivity score of modified RBCs vs 11 Mur monoclonal antibody” value was found to be 0, the “reactivity score of modified RBCs vs 12 Gam monoclonal antibody” value is listed as 0 and the “reactivity score of modified RBCs vs 13 BoxH” value was 8. Moreover, in assay [2] (serum #3, RBCs modified at 500 μg/ml (Method 1)), the “reactivity score, serum alone” value came out at 8. For the same substance, in assay [2] (serum #3 neutralised with peptide SSQTNDKHKRDTY), the “reactivity score, serum + peptide” value is recorded as 0. The “reactivity score, serum alone” value in assay [2] (serum #34, RBCs modified at 500 μg/ml (Method 1)) is given as 8. Besides, in assay [2] (serum #34 neutralised with peptide SSQTNDKHKRDTY), the “reactivity score, serum + peptide” value came out at 0. Besides, the “reactivity score, serum alone” value in assay [2] (serum #37, RBCs modified at 500 μg/ml (Method 1)) came to 8. The “reactivity score, serum + peptide” value in assay [2] (serum #37 neutralised with peptide SSQTNDKHKRDTY) is listed as 0. Further, in assay [2] (serum #42, RBCs modified at 500 μg/ml (Method 1)), the “reactivity score, serum alone” value is listed as 8. Also, in assay [2] (serum #42 neutralised with peptide SSQTNDKHKRDTY), the “reactivity score, serum + peptide” value came out at 0.
“DOPE-PEG6-βAla-Mal-18Mur (PAHTANEVC([Mal″-βAla-PEG6′-DOPE])) [M18]”: in assay [1] (setting [4]), the “reactivity score … vs 2 T217” value came out at 0, the “reactivity score … vs 3 T165” value came out at 10, the “reactivity score … vs 4 T7202” value was 0 and the “reactivity score … vs 6 T6025” value is 10. Moreover, in assay [1] (setting [4]), the “reactivity score … vs 7 T8445” value came to 8, the “reactivity score … vs 8 T5896” value is 0, the “reactivity score of modified RBCs vs 9 MIII monoclonal antibody” value is on record as 0 and the “reactivity score of modified RBCs vs 10 Mia monoclonal antibody” value is 0. Also, in assay [1] (setting [4]), the “reactivity score of modified RBCs vs 11 Mur monoclonal antibody” value is given as 0 and the “reactivity score of modified RBCs vs 12 Gam monoclonal antibody” value was found to be 0.
For the substance “DOPE-PEG6-βAla-Mal-21MUTK (SQTNDKHKRDC([Mal″-βAla-PEG6′-DOPE])) [M21]”, in assay [1] (setting [3]), the “reactivity score … vs 2 T217” value was 0, the “reactivity score … vs 3 T165” value is listed as 8, the “reactivity score … vs 4 T7202” value was 0 and the “reactivity score … vs 6 T6025” value was determined as 8. In addition, in assay [1] (setting [3]), the “reactivity score … vs 7 T8445” value is on record as 0, the “reactivity score … vs 8 T5896” value was 0, the “reactivity score of modified RBCs vs 9 MIII monoclonal antibody” value came to 0 and the “reactivity score of modified RBCs vs 10 Mia monoclonal antibody” value amounted to 0. Moreover, in assay [1] (setting [3]), the “reactivity score of modified RBCs vs 11 Mur monoclonal antibody” value was found to be 0, the “reactivity score of modified RBCs vs 12 Gam monoclonal antibody” value is 3 and the “reactivity score of modified RBCs vs 15 TAP2” value was determined as 5.
As for “M16: DOPE peptide-lipid construct, Mur peptide ThrTyrProAlaHisThrAlaAsnGluVal with terminal Cys, S1 PEG (Table 7) (TYPAHTANEVC([S1 PEG-DOPE]); reading uncertain)”, in assay [1] (setting [4]), the “reactivity score … vs 2 T217” value is given as 0, the “reactivity score … vs 3 T165” value amounted to 10, the “reactivity score … vs 4 T7202” value came out at 5 and the “reactivity score … vs 6 T6025” value was determined as 5. Moreover, in assay [1] (setting [4]), the “reactivity score … vs 7 T8445” value came out at 12, the “reactivity score … vs 8 T5896” value was 0, the “reactivity score of modified RBCs vs 9 MIII monoclonal antibody” value is recorded as 0 and the “reactivity score of modified RBCs vs 10 Mia monoclonal antibody” value is 0. Further, in assay [1] (setting [4]), the “reactivity score of modified RBCs vs 11 Mur monoclonal antibody” value stood at 0, the “reactivity score of modified RBCs vs 12 Gam monoclonal antibody” value is recorded as 0 and the “reactivity score of modified RBCs vs 13 BoxH” value was determined as 0.
